Patent US20080194544A1, “AQUEOUS FORMULATIONS OF EPINASTINE FOR TREATING ALLERGIC RHINITIS” (priority 2007, published 2008)

Settings: intranasal 0.05% or 0.1% spray
Description: Each group started with approximately 190 subjects.
The plasma samples from 43 subjects included in this clinical trial were collected for pharamacokinetic analysis following the first dose (Day 1) and the last dose (Day 14). Plasma epinastine levels following intranasal administration were determined.

NC1=NCC2c3ccccc3Cc3ccccc3N12 (centres unmarked) [epinastine, 3-amino-9,13b-dihydro-1H-dibenz-[c,-f]imidazol[1,5-a]azepine]
dose proportionality of plasma epinastine concentrations: generally proportional to the nasal dose administered | plasma concentrations of epinastine (after first dose (Day 1) and last dose (Day 14), 43 subjects): < 1 ng/mL
